From US4206215A, “Antimicrobial bis-[4-(substituted-amino)-1-pyridinium]alkanes” (Sterling Drug Inc., priority 1977, dated 1980)
Like-named read-outs stand apart in the source and are kept apart here.

Tests used:
S. Aureus Smith = assay: In vitro antibacterial activity, MIC (modified Autotiter method); format: cell-based, Staphylococcus aureus; settings: 18-20 hours at 37° C.; for MIC: Staphylococcus aureus, 20 h, read-out: MIC S. Aureus Smith
Outline: (§1)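 MIC values come from a twofold dilution series spanning final concentrations of 500 down to 0.06 mcg./ml. Dilutions were prepared automatically in sterile water from a 1,000 mcg./ml. solution before inoculated double-strength glucose-containing semisynthetic medium was added.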

P. mirab. MGH-1 = assay: as above; format: cell-based, Proteus mirabilis; settings: 18-20 hours at 37° C.; for MIC: Proteus mirabilis, 20 h, read-out: MIC P. mirab. MGH-1
Outline: as §1

S. pyogen. C203 = assay: as above; format: cell-based, Streptococcus pyogenes; settings: 18-20 hours at 37° C.; for MIC: Streptococcus pyogenes, 20 h, read-out: MIC S. pyogen. C203
Outline: as §1

T. menta. 9129 = assay: In vitro antifungal activity, MIC (modified Autotiter method); format: cell-based, Trichophyton mentagrophytes; settings: 18-20 hours at 37° C.; for MIC: Trichophyton mentagrophytes, 20 h, read-out: MIC T. menta. 9129
Outline: as §1

A. niger 16404 = assay: as above; format: cell-based, Aspergillus niger; settings: 18-20 hours at 37° C.; for MIC: Aspergillus niger, 16404, 20 h, read-out: MIC A. niger 16404
Outline: as §1

E. coli Vogel = assay: In vitro antibacterial activity, MIC (modified Autotiter method); format: cell-based, Escherichia coli; settings: 18-20 hours at 37° C.; for MIC: Escherichia coli, 20 h, read-out: MIC E. coli Vogel
Outline: as §1

E. coli 100/B22 = assay: as above; format: cell-based, Escherichia coli; settings: 18-20 hours at 37° C.; for MIC: Escherichia coli, 100/B22, 20 h, read-out: MIC E. coli 100/B22
Outline: as §1

E. coli AB1932-1 = assay: as above; format: cell-based, Escherichia coli; settings: 18-20 hours at 37° C.; for MIC: Escherichia coli, AB19321, 20 h, read-out: MIC E. coli AB1932-1
Outline: as §1

Ps. aerug. MGH-2 = assay: as above; format: cell-based, Pseudomonas aeruginosa; settings: 18-20 hours at 37° C.; for MIC: Pseudomonas aeruginosa, 20 h, read-out: MIC Ps. aerug. MGH-2
Outline: as §1

S. Aureus ATCC 6538 = assay: Effect of serum on bacteriostatic activity (serial tube dilution test); format: cell-based, Staphyloccocus aureus; settings: for Fold Increase in MIC S. Aureus ATCC 6538: 40% vs 0% horse serum; for MIC: Staphylococcus aureus, ATCC6538
Experimental: (§2) Antibacterial effectiveness in the presence of serum was determined for representative examples by the standard serial tube dilution test wherein paired comparisons of minimum inhibitory concentrations (MIC) were determined in the absence and in the presence of heat inactivated (30 min. at 56° C.) horse serum (40%) in the test medium. The results are expressed as the fold increase in MIC (mcg./ml.) versus Staphyloccocus aureus and Escherichia coli caused by the presence of serum and are presented in Table B hereinbelow.

K. pneum. 39645 = assay: In vitro antibacterial activity, MIC (modified Autotiter method); format: cell-based, Klebsiella pneumoniae; settings: 18-20 hours at 37° C.; for MIC: Klebsiella pneumoniae, 20 h, read-out: MIC K. pneum. 39645
Outline: as §1

[1] = test system: Herpes simplex type 2 virus; assay: Virucidal activity in vitro (plaque inhibition test); format: cell-based; settings: 2 mg. of test compound on growth medium
Experimental: Virucidal activity of representative examples against Herpes simplex type 2 virus was determined in vitro employing a procedure similar to the plaque inhibition test for detection of specific inhibitors of DNA-containing viruses published by E. C. Herrmann, Jr., Proc. Soc. Exp. Biol. Med. 107, 142 (1961) wherein 2 mg. of the test compound was placed on the surface of the growth medium.

C. albicans 10231 = assay: In vitro antifungal activity, MIC (modified Autotiter method); format: cell-based, Candida albicans; settings: 18-20 hours at 37° C.; for MIC: Candida albicans, 10231, 20 h, read-out: MIC C. albicans 10231
Outline: as §1

C. albicans Wisc. = assay: as above; format: cell-based, Candida albicans; settings: 18-20 hours at 37° C.; for MIC: Candida albicans, 20 h, read-out: MIC C. albicans Wisc.
Outline: as §1

E. Coli ATCC 8739 = assay: Effect of serum on bacteriostatic activity (serial tube dilution test); format: cell-based, Escherichia coli; settings: for Fold Increase in MIC E. Coli ATCC 8739: 40% vs 0% horse serum; for MIC: Escherichia coli, ATCC8739
Experimental: as §2

[2] = 40% heat inactivated horse serum, read-out: MIC S. Aureus ATCC 6538 40% Serum
[3] = read-out: MIC S. Aureus ATCC 6538 0% Serum
[4] = 40% heat inactivated horse serum, read-out: MIC E. Coli ATCC 8739 40% Serum
[5] = read-out: MIC E. Coli ATCC 8739 0% Serum

SMILES | MIC (S. Aureus Smith) [µg/mL] | MIC (P. mirab. MGH-1) [µg/mL] | MIC S. pyogen. C203 (S. pyogen. C203) [µg/mL] | MIC (T. menta. 9129) [µg/mL] | MIC (A. niger 16404) [µg/mL] | MIC (E. coli Vogel) [µg/mL] | MIC (E. coli 100/B22) [µg/mL] | MIC (E. coli AB1932-1) [µg/mL] | Fold Increase in MIC S. Aureus ATCC 6538 (S. Aureus ATCC 6538) [fold] | MIC (S. Aureus ATCC 6538; [2]) [µg/mL] | MIC (S. Aureus ATCC 6538; [3]) [µg/mL] | MIC (K. pneum. 39645) [µg/mL] | Virucidal activity against Herpes simplex type 2 virus [1] | MIC (C. albicans 10231) [µg/mL] | MIC (C. albicans Wisc.) [µg/mL] | Fold Increase in MIC E. Coli ATCC 8739 (E. Coli ATCC 8739) [fold] | MIC (E. Coli ATCC 8739; [4]) [µg/mL] | MIC (E. Coli ATCC 8739; [5]) [µg/mL] | MIC (S. pyogen. C203) [µg/mL] | MIC (Ps. aerug. MGH-2) [µg/mL] | also measured
CCCCCCCNc1cc[n+](CCCCCCCC[n+]2ccc(NCCCCCCC)cc2)cc1 [Example 22, 1,8-bis-[4-(heptylamino)-1-pyridinium]-octanedibromide] | 0.39 | 62.5 | 0.49 | 1.95 | 15.6 | 1.95 | 0.98 | 0.98 | 16 | 3.9 | 0.25 | 1.95 | active | 0.98 | 1.95 | 8 | 3.9 | 0.5 |  |  | MIC Ps. aerug. MGH-2 (Ps. aerug. MGH-2): 313 µg/mL
CCCCCCCCNc1cc[n+](CCCCCC[n+]2ccc(NCCCCCCCC)cc2)cc1 [Example 13, 1,6-bis-[4-(octylamino)-1-pyridinium]hexane dibromide] | 0.5 |  |  | 0.5 |  | 1.95 | 1.95 | 1 | 128 | 31.2 | 0.25 | 3.9 | active | 1.95 | 1.95 | 32 | 31.2 | 1 | 0.5 | 31.3 | MIC P. mirab. MGH-1 (P. mirab. MGH-1): 31.3 µg/mL; MIC A. niger 16404 (A. niger 16404): 3.9 µg/mL
Clc1ccc(Nc2cc[n+](CCCCCCCCCC[n+]3ccc(Nc4ccc(Cl)cc4)cc3)cc2)cc1 [Example 79B, 1,10-bis-[4-(p-chlorophenylamino)-1-pyridinium]decane dimethanesulfonate] | 0.4 | > 125 |  | 6.25 | 25 | 1.6 | 1.6 | 0.8 | 32 | 7.8 | 0.25 | 3.1 | inactive | 3.13 | 6.25 | 32 | 15.6 | 0.5 | 0.4 | 62.5 | 
CCCCCCNc1cc[n+](CCCCCCCCCCCC[n+]2ccc(NCCCCCC)cc2)cc1 [Example 7, 1,12-bis-[4-(hexylamino)-1-pyridinium]dodecane dibromide] |  |  | 1.0 |  |  |  |  |  | 16 | 1.56 | 0.1 |  | active |  |  | 32 | 12.5 | 0.39 |  |  | MIC S. Aureus Smith (S. Aureus Smith): 0.15 µg/mL; MIC P. mirab. MGH-1 (P. mirab. MGH-1): 6.0 µg/mL; MIC T. menta. 9129 (T. menta. 9129): 0.37 µg/mL; MIC A. niger 16404 (A. niger 16404): 3.0 µg/mL; MIC E. coli Vogel (E. coli Vogel): 0.37 µg/mL; MIC E. coli 100/B22 (E. coli 100/B22): 0.37 µg/mL; MIC E. coli AB1932-1 (E. coli AB1932-1): 0.37 µg/mL; MIC Ps. aerug. MGH-2 (Ps. aerug. MGH-2): 23.8 µg/mL; MIC K. pneum. 39645 (K. pneum. 39645): 1.5 µg/mL; MIC C. albicans 10231 (C. albicans 10231): 0.74 µg/mL; MIC C. albicans Wisc. (C. albicans Wisc.): 0.74 µg/mL
CCCCCCNc1cc[n+](CCCCCCCCCC[n+]2ccc(NCCCCCC)cc2)cc1 [Example 33, 1,10-bis-[4-(hexylamino)-1-pyridinium]decane dibromide] | 0.195 | 31.3 |  | 1.95 | 3.9 | 1.95 | 1.95 | 0.98 | 16 | 1.95 | 0.125 | 3.9 | active | 1.95 | 3.9 | 16 | 3.9 | 0.25 | 0.49 | 31.3 | 
CCCCCCCNc1cc[n+](CCCCCC[n+]2ccc(NCCCCCCC)cc2)cc1 [Example 61, 1,6-bis-[4-(heptylamino)-1-pyridinium]hexane dibromide] | 0.2 | > 250 | 0.4 | 3.13 |  | 3.1 | 1.6 | 1.6 |  |  |  | 6.3 | active | 6.25 | 6.25 |  |  |  |  | 125 | MIC A. niger 16404 (A. niger 16404): 25 µg/mL
